In this series the target is GAL4 DBD (1-147)-CfEcR(DEF)/VP16AD-βRXREF-LmUSPEF (Choristoneura fumiferana, UniProt O77240). The series is described as follows: cell-based. The conditions noted are these: for Fold Induction, 27-63 Assay, 3.3 uM: 3.3 uM ligand; for Fold Induction, 27-63 Assay, 3.3 uM / Fold Induction, 27-63 Assay, 33 uM: RLU ligand treated / RLU DMSO treated cells; for Fold Induction, 27-63 Assay, 33 uM: 33 uM ligand; for 27-63 assay Rel Max FI: maximum fold induction at any concentration relative to that of GS-E ligand, CHO 27-63 cells; for fold induction at 3.3 µM: read-out: Fold Induction, 27-63 Assay, 3.3 uM; for fold induction at 33 µM: read-out: Fold Induction, 27-63 Assay, 33 uM.

Where [1] appears, read: read-out: 27-63 assay EC50, CHO 27-63 stable cell line, luciferase reporter, average of two wells.

Molecules are shown by their SMILES. Read-outs that look alike come from different tables or passages of the source.

As for `COc1cccc(C(=O)N(NC(=O)c2ccc3c(c2C)OCCO3)C(C)(C)C)c1` [RG-100360], the “27-63 assay Rel Max FI” value was 0.873. Also, under “average of two wells”, the “Fold Induction, 27-63 Assay, 3.3 uM” value is listed as 1627 and the “Fold Induction, 27-63 Assay, 33 uM” value came out at 1353. Moreover, the EC50 under setting [1] was 615 nM.

Consider `Cc1c(C(=O)NN(C(=O)c2ccc(F)cc2)C(C)(C)C)ccc2c1OCO2` [RG-100448], for which the “27-63 assay Rel Max FI” value is 0.609. Moreover, for the setting “average of two wells”, the “Fold Induction, 27-63 Assay, 3.3 uM” value is on record as 66 and the “Fold Induction, 27-63 Assay, 33 uM” value amounted to 847. In addition, the 50% effective concentration (EC50) under setting [1] is 5290 nM.

Take `CCc1c(C(=O)NN(C(=O)c2ccc(F)c(F)c2F)C(C)(C)C)ccc2c1OCCO2` [RG-115580]: the “27-63 assay Rel Max FI” value was determined as 0.760. Moreover, for the setting “average of two wells”, the “Fold Induction, 27-63 Assay, 3.3 uM” value came out at 1104 and the “Fold Induction, 27-63 Assay, 33 uM” value stood at 1031. Besides, under setting [1], the EC50 is 375 nM.

Regarding `CCc1c(OC)cccc1C(=O)NN(C(=O)c1cc(C)ccc1[N+](=O)[O-])C(C)(C)C` [RG-115162], the “27-63 assay Rel Max FI” value turned out to be 0.653. Moreover, for the setting “average of two wells”, the “Fold Induction, 27-63 Assay, 3.3 uM” value is listed as 1814 and the “Fold Induction, 27-63 Assay, 33 uM” value is 1464. In addition, under setting [1], the EC50 is 424 nM.

In the case of `CC(O)c1ccc(C(=O)NN(C(=O)c2cc(F)cc(F)c2)C(C)(C)C)cc1` (centres unmarked) [RG-100342], the “27-63 assay Rel Max FI” value came out at 0.674. Besides, under “average of two wells”, the “Fold Induction, 27-63 Assay, 3.3 uM” value is on record as 2 and the “Fold Induction, 27-63 Assay, 33 uM” value was 1287. Further, the 50% effective concentration (EC50) under setting [1] came out at 17700 nM.

For the compound `COc1ccc(C)cc1C(=O)N(NC(=O)c1cccc(OC)c1C)C(C)(C)C` [RG-100766], the “27-63 assay Rel Max FI” value is 0.944. Further, for the setting “average of two wells”, the “Fold Induction, 27-63 Assay, 3.3 uM” value was 931 and the “Fold Induction, 27-63 Assay, 33 uM” value stood at 1993. The EC50 under setting [1] was determined as 3420 nM.

Turning to `COc1cc(C(=O)N(NC(=O)c2ccc3c(c2C)OCCO3)C(C)(C)C#N)cc(OC)c1C` [RG-115092, N-(5-methyl-1,4-benzodioxan-6-carbonyl)-N′-(2-cyano-2-propyl)-N′-(3,5-dimethoxy-4-methylbenzoyl)hydrazine], the concentration giving a half-maximal response (EC50) was 213 nM, the “27-63 assay Rel Max FI” value is recorded as 1.092, the fold induction at 3.3 µM is 2870 and the fold induction at 33 µM turned out to be 3110.

In the case of `CCc1c(C(=O)NN(C(=O)c2ccc(F)c(C(F)(F)F)c2)C(C)(C)C)ccc2c1OCCO2` [RG-115280], the “27-63 assay Rel Max FI” value turned out to be 0.254. In addition, where the note is “average of two wells”, the “Fold Induction, 27-63 Assay, 3.3 uM” value stood at 9 and the “Fold Induction, 27-63 Assay, 33 uM” value came to 422. Besides, the concentration for a half-maximal effect (EC50) under setting [1] turned out to be 11000 nM.

As for `Cc1ccc(F)c(C(=O)N(NC(=O)c2ccc3c(c2C)CCCO3)C(C)(C)C)c1` [RG-115499], the “27-63 assay Rel Max FI” value is on record as 0.705. Under “average of two wells”, the “Fold Induction, 27-63 Assay, 3.3 uM” value was found to be 2092 and the “Fold Induction, 27-63 Assay, 33 uM” value is given as 1536. Moreover, the concentration giving a half-maximal response (EC50) under setting [1] was determined as 336 nM.

Take `CCc1c(C(=O)NN(C(=O)c2ccccc2OC)C(C)(C)C)ccc2c1OCCO2` [RG-115244]: the “27-63 assay Rel Max FI” value worked out at 0.785. In addition, where the note is “average of two wells”, the “Fold Induction, 27-63 Assay, 3.3 uM” value was found to be 2203 and the “Fold Induction, 27-63 Assay, 33 uM” value is given as 1847. The EC50 under setting [1] is 169 nM.

As to `COc1cccc(C(=O)NN(C(=O)c2cc(C)ccc2[N+](=O)[O-])C(C)(C)C)c1C` [RG-100569], the “27-63 assay Rel Max FI” value was determined as 0.720. In addition, for the setting “average of two wells”, the “Fold Induction, 27-63 Assay, 3.3 uM” value is on record as 884 and the “Fold Induction, 27-63 Assay, 33 uM” value is recorded as 841. For the same compound, the EC50 under setting [1] was found to be 287 nM.

As to `Cc1c(C(=O)NN(C(=O)c2cc(F)c(F)cc2F)C(C)(C)C)ccc2c1CCCO2` [RG-115229], the “27-63 assay Rel Max FI” value came out at 0.735. Further, under “average of two wells”, the “Fold Induction, 27-63 Assay, 3.3 uM” value was 2829 and the “Fold Induction, 27-63 Assay, 33 uM” value stood at 1423. In addition, under setting [1], the EC50 was 1150 nM.

Regarding `CCc1c(OC)cccc1C(=O)NN(C(=O)c1cc(C)cc(C)c1)C(C)(C)C=NNC(N)=O` [RG-115653, semicarbazide of 2-ethyl-3-methoxy-benzoic acid N′-(3,5-dimethyl-benzoyl)-N′-(1,1-dimethyl-2-oxo-ethyl)-hydrazide], the “27-63 assay Rel Max FI” value was 0.53. For the setting “average of two wells”, the “Fold Induction, 27-63 Assay, 3.3 uM” value was determined as 1 and the “Fold Induction, 27-63 Assay, 33 uM” value was 832. The EC50 under setting [1] was determined as 19800 nM.

On to `CCc1c(OC)cccc1C(=O)NN(C(=O)c1cc(F)c(Cl)cc1Cl)C(C)(C)C` [RG-115302], for which the “27-63 assay Rel Max FI” value amounted to 0.521. Besides, where the note is “average of two wells”, the “Fold Induction, 27-63 Assay, 3.3 uM” value is 940 and the “Fold Induction, 27-63 Assay, 33 uM” value worked out at 815. In addition, the EC50 under setting [1] came out at 1040 nM.

Regarding `CCCC(N(NC(=O)c1cccc(OC)c1CC)C(=O)c1cc(C)cc(C)c1)C(C)(C)C` (centres unmarked) [RG-115830], the “27-63 assay Rel Max FI” value was determined as 1.049. For the same compound, where the note is “average of two wells”, the “Fold Induction, 27-63 Assay, 3.3 uM” value is reported as 2287 and the “Fold Induction, 27-63 Assay, 33 uM” value stood at 353. Moreover, the EC50 under setting [1] was 36 nM.

Regarding `CCc1c(C(=O)NN(C(=O)c2ccccc2OC)C(C)(C)C)ccc2c1OCCO2` [RG-100690], the “27-63 assay Rel Max FI” value is given as 0.727. Also, where the note is “average of two wells”, the “Fold Induction, 27-63 Assay, 3.3 uM” value stood at 1136 and the “Fold Induction, 27-63 Assay, 33 uM” value was found to be 1047. Also, the concentration giving a half-maximal response (EC50) under setting [1] stood at 200 nM.

Take `Cc1ccc([N+](=O)[O-])c(C(=O)N(NC(=O)c2ccc3c(c2C)OCCO3)C(C)(C)C)c1` [RG-115384]: the “27-63 assay Rel Max FI” value is given as 0.645. Under “average of two wells”, the “Fold Induction, 27-63 Assay, 3.3 uM” value stood at 1713 and the “Fold Induction, 27-63 Assay, 33 uM” value was 1282. Further, under setting [1], the EC50 turned out to be 113 nM.

On to `CCc1c(C(=O)NN(C(=O)c2ccccc2OC)C(C)(C)C)ccc2c1OCOC2` [RG-115065], for which the “27-63 assay Rel Max FI” value worked out at 0.746. In addition, where the note is “average of two wells”, the “Fold Induction, 27-63 Assay, 3.3 uM” value is recorded as 859 and the “Fold Induction, 27-63 Assay, 33 uM” value is given as 1095. Also, under setting [1], the half-maximal effective concentration (EC50) amounted to 3000 nM.

In the case of `Cc1c(C(=O)NN(C(=O)c2cccc(F)c2)C(C)(C)C)ccc2c1CCCO2` [RG-115278], the “27-63 assay Rel Max FI” value is reported as 0.720. In addition, for the setting “average of two wells”, the “Fold Induction, 27-63 Assay, 3.3 uM” value was 1250 and the “Fold Induction, 27-63 Assay, 33 uM” value amounted to 906. Moreover, the EC50 under setting [1] amounted to 885 nM.

In the case of `COc1cc(C)cc(C(=O)N(NC(=O)c2cccc(OC)c2C)C(C)(C)C)c1` [RG-100767], the “27-63 assay Rel Max FI” value came out at 1.218. Where the note is “average of two wells”, the “Fold Induction, 27-63 Assay, 3.3 uM” value is 2097 and the “Fold Induction, 27-63 Assay, 33 uM” value came to 2171. For the same compound, under setting [1], the half-maximal effective concentration (EC50) is 334 nM.

`COc1ccccc1C(=O)N(NC(=O)c1ccc2c(c1)OCCO2)C(C)(C)C` [RG-100492]: the “27-63 assay Rel Max FI” value is reported as 0.916. Under “average of two wells”, the “Fold Induction, 27-63 Assay, 3.3 uM” value worked out at 4 and the “Fold Induction, 27-63 Assay, 33 uM” value is given as 1378. Further, the concentration giving a half-maximal response (EC50) under setting [1] is 11800 nM.

As to `COc1cc(C(=O)N(NC(=O)c2ccc3c(c2C)CCCO3)C(C)(C)C)cc(OC)c1C` [RG-115055], the “27-63 assay Rel Max FI” value is reported as 1.341. Moreover, under “average of two wells”, the “Fold Induction, 27-63 Assay, 3.3 uM” value was 4499 and the “Fold Induction, 27-63 Assay, 33 uM” value is 2725. In addition, the EC50 under setting [1] came to 318 nM.

For the compound `CCCC(N(NC(=O)c1cccc(OC)c1CC)C(=O)c1cc(OC)c(C)c(OC)c1)C(C)(C)C` (centres unmarked) [RG-115829, 3,5-Dimethoxy-4-methyl-benzoic acid N-(1-tert-butyl-butyl)-N′-(2-ethyl-3-methoxy-benzoyl)-hydrazide], a half-maximal effect (EC50) was put at 35 nM, the “27-63 assay Rel Max FI” value was 1.264, the fold induction at 3.3 µM was 2600 and the fold induction at 33 µM came out at 45.

The values above are taken from US9102648B1, “Bioavailable diacylhydrazine ligands for modulating the expression of exogenous genes via an ecdysone receptor complex” (Intrexon Corporation, priority 2003, dated 2015).
